In ChEMBL document CHEMBL2016509, “Design, synthesis and cytotoxic activities of novel hybrid compounds between 2-phenylbenzofuran and imidazole” (Bioorg Med Chem Lett, 2012):

How the values were obtained:
HL-60 = test: Cytotoxicity against human HL60 cells after 48 hrs by MTT assay; format: functional, cell-based; settings: HL-60, 48 h
MCF7 = test: Cytotoxicity against human MCF7 cells after 48 hrs by MTT assay; format: functional, cell-based; settings: MCF7, 48 h
A549 = test: Cytotoxicity against human A549 cells after 48 hrs by MTT assay; format: functional, cell-based; settings: A549, 48 h
SW480 = test: Cytotoxicity against human SW480 cells after 48 hrs by MTT assay; format: functional, cell-based; settings: SW480, 48 h
SMMC-7721 [1] = test: Cytotoxicity against human SMMC7721 cells after 48 hrs by MTT assay; format: functional, cell-based; settings: SMMC-7721, 48 h
SMMC-7721 [2] = test: Ratio of DDP IC50 to compound IC50 for human SMMC7721 cells; format: functional

Row | Compound | IC50 (HL-60) [µM] | IC50 (MCF7) [µM] | IC50 (A549) [µM] | IC50 (SW480) [µM] | IC50 (SMMC-7721 [1]) [µM] | Ratio IC50 (SMMC-7721 [2])
1 | O=C(C[n+]1ccn(-c2ccc(-c3cc4ccccc4o3)cc2)c1)c1ccc2ccccc2c1.[Br-] | 2.49 | 5.87 | 10.9 | 3.38 | 1.65 | 5.4
2 | O=C(C[n+]1ccn(-c2ccc(-c3cc4ccccc4o3)cc2)c1)c1ccccc1 | 2.61 | 11.9 | 12.9 | 10.3 | 3.71 | –
3 | C=CC[n+]1ccn(-c2ccc(-c3cc4ccccc4o3)cc2)c1 | 14.5 | 13.7 | 33.5 | > 40 | 27 | –
4 | CCCC[n+]1ccn(-c2ccc(-c3cc4ccccc4o3)cc2)c1 | 11.8 | 31.4 | 21.7 | > 40 | 12.7 | –
5 | O=C(C[n+]1ccn(-c2ccc(-c3cc4ccccc4o3)cc2)c1)c1ccc(O)cc1 | > 40 | > 40 | > 40 | > 40 | > 40 | –
6 | O=C(C[n+]1ccn(-c2ccc(-c3cc4ccccc4o3)cc2)c1)c1ccc(F)cc1 | 12.3 | 16.7 | 19.7 | 16.8 | 13.5 | –
7 | COc1ccc(C(=O)C[n+]2ccn(-c3ccc(-c4cc5ccccc5o4)cc3)c2)cc1 | 2.26 | 11.3 | 9.79 | 6.93 | 3.71 | –
8 | O=C(C[n+]1ccn(-c2ccc(-c3cc4ccccc4o3)cc2)c1)c1ccc(Br)cc1 | 3.15 | 2.84 | 8.46 | 2.85 | 3.39 | –
9 | O=C(c1ccccc1)C(c1ccccc1)[n+]1ccn(-c2ccc(-c3cc4ccccc4o3)cc2)c1 (stereo unspecified) | 2.7 | 6.9 | 6.79 | 6.93 | 3.31 | –
10 | c1ccc(C[n+]2ccn(-c3ccc(-c4cc5ccccc5o4)cc3)c2)cc1 | 5.37 | 26.9 | 25.4 | 19.9 | 15.1 | –
11 | c1ccc2oc(-c3ccc(-n4ccnc4)cc3)cc2c1 | > 40 | > 40 | > 40 | > 40 | > 40 | –
12 | Brc1ccccc1C[n+]1ccn(-c2ccc(-c3cc4ccccc4o3)cc2)c1 | 1.97 | 14.3 | 9.77 | 12.7 | 4.38 | –
